Patent US20250213533A1 (GH RESEARCH IRELAND LIMITED, priority 2022, published 2025)

Tested on: patients with postpartum depression (PPD)
Experiment: Clinical trial of inhaled 5-MeO-DMT (IDR) in postpartum depression; one patient so far, 6 mg then 12 mg
Details: 1 patient
Protocol: The single-arm, open-label clinical trial will involve 15 adult female patients with clinically diagnosed postpartum depression (PPD).
The second dose (12 mg) will only be administered if: • a. […] The 6 mg dose was safe and well-tolerated according to the investigator, • c. Any psychoactive effects (PsE) of the prior dose have subsided, and • d. Pre-dose vital parameters and forced expiratory volume in one second (FEV1) are in normal range, or if outside of the normal range, are not clinically significant according to the investigator. • 3. Similarly, a third dose (18 mg) will only be administered if: • a. […] The 12 mg dose was safe and well-tolerated according to the investigator, and • c. Any PsE of the prior dose have subsided, and • d. Pre-dose vital parameters and forced expiratory volume in one second (FEV1) are in normal range, or if outside of the normal range, are not clinically significant according to the investigator.
The patients will be assessed for a peak psychedelic experience (based on a patient-scored visual analogue scale, the PE scale), sedation, and other endpoints after dosing. Follow-up visits are planned for Day 1, and Day 7 after the dosing day.
The following criteria must be met by all patients considered for clinical trial participation: • 1. Is female and in the age range between 18 and 45 years (inclusive) at screening. • 2. Has a body mass index (BMI) in the range of 18.5 and 35 kg/m^2 (inclusive) at screening. • 3. Meets the trial criteria for PPD as assessed by a trial psychiatrist or registered psychologist: • a. Diagnosis of Major Depressive Disorder without psychotic features, confirmed by the Mini-International Neuropsychiatric Interview (MINI), with peri-partum onset that began no earlier than gestation and no later than the first 4 weeks postpartum. • b. Has a Montgomery-Åsberg Depression Rating Scale (MADRS) total score of equal to or greater than 28 at screening and pre-dose on Day 0. • 6. […] Patients must have a negative pregnancy test at screening and on the pre-test day (Day −1). • 5. Is willing to delay start of other antidepressant or anxiety medication until after the end of the trial at Day 7 and agrees to keep any psychotherapy unchanged during the trial.
A potential patient who meets any of the following key exclusion criteria will be excluded from participation in this trial: • 1. Has, based on history, psychiatric assessment, and evaluation of the MINI, a current or prior diagnosis of bipolar disorder, a manic or hypomanic episode, a psychotic disorder, Major Depressive Disorder (MDD) or other mood disorder with psychotic features, obsessive compulsive disorder, post-traumatic stress disorder (PTSD), autism spectrum disorder, borderline personality disorder, schizophrenia, delusional disorder, paranoid personality disorder, schizoaffective disorder, clinically significant intellectual disability, or any other psychiatric comorbidity that renders the patient unsuitable for the trial according to the investigator's judgment. • 2. Has one or more first or second degree relatives with a current or previously diagnosed bipolar disorder, psychotic disorder or other mood disorder (including MDD) with psychotic features. • 3. Is in the judgement of a trial psychiatrist or registered psychologist, at significant risk for suicide based on history, psychiatric assessment, and evaluation of suicidal ideation and suicidal behaviour based on the Columbia-Suicide Severity Rating Scale (C-SSRS). • 4. Has taken anti-depressive medication within 14 days or 5 half-lives (whichever is longer) prior to dosing (exception: within the last 5 weeks in the case of fluoxetine). • 5.

COc1ccc2[nH]cc(CCN(C)C)c2c1 [5-MeO-DMT] was tested, and the “ECG (3 hours), safety laboratory analyses (7 days), CADSS (3 hours, 1 day, 7 days)” value was “unremarkable”, the “standard criteria for MADRS remission (total score equal or less than 10)” value was “fulfilled” and the “standard criteria for MADRS response (at least 50% improvement from baseline)” value was “fulfilled”. The “time to clinical response after administration” value was ≤ 2 h, the “tolerability of the inhalation procedure” value was “well tolerated with no inhalation-related adverse events” and the “MADRS Apparent sadness improvement” value (2hr) was 5. For the same molecule, the “MADRS Apparent sadness score” value (2hr) was 0, the “MADRS Concentration Difficulties improvement” value (2hr) was 0 and the “MADRS Concentration Difficulties score” value (2hr) was 0. For the same molecule, the “MADRS Inability to Feel improvement” value (2hr) was 3, the “MADRS Inability to Feel score” value (2hr) was 0 and the “MADRS Inner Tension improvement” value (2hr) was 5. For the same molecule, the “MADRS Inner Tension score” value (2hr) was 0, the “MADRS Lassitude improvement” value (2hr) was 3 and the “MADRS Lassitude score” value (2hr) was 0. For the same molecule, the “MADRS Pessimistic Thoughts improvement” value (2hr) was 4, the “MADRS Pessimistic Thoughts score” value (2hr) was 0 and the “MADRS Reduced Sleep improvement” value (2hr) was 0. For the same molecule, the “MADRS Reduced Sleep score” value (2hr) was 5, the “MADRS Reduced appetite improvement” value (2hr) was 0 and the “MADRS Reduced appetite score” value (2hr) was 0. The “MADRS Reported sadness improvement” value (2hr) was 4, the “MADRS Reported sadness score” value (2hr) was 0 and the “MADRS Suicidal Thoughts improvement” value (2hr) was 0. For the same molecule, the “MADRS Suicidal Thoughts score” value (2hr) was 0, the “BIMF TOTAL score” value (Day 0) was 92 and the “BIMF item 1 (I am a good mother) score” value (Day 0) was 6. The “BIMF item 2 (I feel rested) score” value (Day 0) was 0, the “BIMF item 3 (comfortable with the way I've chosen to feed my baby) score” value (Day 0) was 6 and the “BIMF item 4 (My baby and I understand each other) score” value (Day 0) was 5. For the same molecule, the “BIMF item 5 (able to relax and enjoy time with my baby) score” value (Day 0) was 5, the “BIMF item 6 (people I can trust to care for my baby when I need a break) score” value (Day 0) was 6 and the “BIMF item 8 (getting enough adult interaction) score” value (Day 0) was 6. The “BIMF item 9 (getting enough encouragement from other people) score” value (Day 0) was 5, the “BIMF item 10 (trust my own feelings (instincts) in taking care of my baby) score” value (Day 0) was 5 and the “BIMF item 11 (take a little time each week to do something for myself) score” value (Day 0) was 5. The “BIMF item 12 (taking good care of my baby's physical needs) score” value (Day 0) was 6, the “BIMF item 13 (taking good care of my physical needs) score” value (Day 0) was 4 and the “BIMF item 14 (good decisions about my baby's health and well being) score” value (Day 0) was 6. For the same molecule, the “BIMF item 15 (My baby and I are getting into a routine) score” value (Day 0) was 5, the “BIMF item 16 (I worry about how other people judge me (as a mother)) score” value (Day 0) was 3 and the “BIMF item 17 (able to take care of my baby and my other responsibilities) score” value (Day 0) was 5. For the same molecule, the “BIMF item 18 (Anxiety or worry often interferes with my mothering ability) score” value (Day 0) was 2, the “BIMF item 19 (getting better at taking care of my baby) score” value (Day 0) was 0 and the “BIMF item 20 (satisfied with the job I am doing as a new mother) score” value (Day 0) was 6. For the same molecule, the “adverse events (cramping left abdominal pain, headache)” value (Day 0) was “mild, short-lasting and resolved spontaneously”, the “BIMF functional domain Adjustment score” value (Day 0, maximum possible 12) was 5 and the “BIMF functional domain Infant Care score” value (Day 0, maximum possible 12) was 12. The “BIMF functional domain Mother-Child Interaction score” value (Day 0, maximum possible 18) was 15, the “BIMF functional domain Self Care score” value (Day 0, maximum possible 18) was 9 and the “BIMF functional domain Social Support score” value (Day 0, maximum possible 18) was 17. The “BIMF functional domain Management score” value (Day 0, maximum possible 36) was 28, the “BIMF functional domain Psychological Well-being score” value (Day 0, maximum possible 60) was 44 and the “BPRS Anxiety improvement” value (Day 1) was 6. For the same molecule, the “BPRS Anxiety score” value (Day 1) was 1, the “BPRS Blunted affect improvement” value (Day 1) was 0 and the “BPRS Blunted affect score” value (Day 1) was 1. The “BPRS Conceptual disorganization improvement” value (Day 1) was 0, the “BPRS Conceptual disorganization score” value (Day 1) was 1 and the “BPRS Depressive Mood improvement” value (Day 1) was 5. The “BPRS Depressive Mood score” value (Day 1) was 1, the “BPRS Disorientation improvement” value (Day 1) was 0 and the “BPRS Disorientation score” value (Day 1) was 1. For the same molecule, the “BPRS Emotional withdrawal improvement” value (Day 1) was 4, the “BPRS Emotional withdrawal score” value (Day 1) was 1 and the “BPRS Excitement improvement” value (Day 1) was 1. The “BPRS Excitement score” value (Day 1) was 1, the “BPRS Grandiosity improvement” value (Day 1) was 0 and the “BPRS Grandiosity score” value (Day 1) was 1. The “BPRS Guilt feelings improvement” value (Day 1) was 5, the “BPRS Guilt feelings score” value (Day 1) was 1 and the “BPRS Hallucinatory behaviour improvement” value (Day 1) was 0. For the same molecule, the “BPRS Hallucinatory behaviour score” value (Day 1) was 1, the “BPRS Hostility improvement” value (Day 1) was 0 and the “BPRS Hostility score” value (Day 1) was 1. For the same molecule, the “BPRS Mannerisms and Posturing improvement” value (Day 1) was 0, the “BPRS Mannerisms and Posturing score” value (Day 1) was 1 and the “BPRS Motor retardation improvement” value (Day 1) was 0. The “BPRS Motor retardation score” value (Day 1) was 1, the “BPRS Somatic Concern improvement” value (Day 1) was 5 and the “BPRS Somatic Concern score” value (Day 1) was 1. The “BPRS Suspiciousness improvement” value (Day 1) was 0, the “BPRS Suspiciousness score” value (Day 1) was 1 and the “BPRS Tension score” value (Day 1) was 1. For the same molecule, the “BPRS Uncooperativeness improvement” value (Day 1) was 0, the “BPRS Uncooperativeness score” value (Day 1) was 1 and the “BPRS Unusual Thought Content improvement” value (Day 1) was 0. The “BPRS Unusual Thought Content score” value (Day 1) was 1, the “MADRS Apparent sadness improvement” value (Day 1) was 5 and the “MADRS Apparent sadness score” value (Day 1) was 0. For the same molecule, the “MADRS Concentration Difficulties improvement” value (Day 1) was 0, the “MADRS Concentration Difficulties score” value (Day 1) was 0 and the “MADRS Inability to Feel improvement” value (Day 1) was 3. For the same molecule, the “MADRS Inability to Feel score” value (Day 1) was 0, the “MADRS Inner Tension improvement” value (Day 1) was 5 and the “MADRS Inner Tension score” value (Day 1) was 0. For the same molecule, the “MADRS Lassitude improvement” value (Day 1) was 3, the “MADRS Lassitude score” value (Day 1) was 0 and the “MADRS Pessimistic Thoughts improvement” value (Day 1) was 4. For the same molecule, the “MADRS Pessimistic Thoughts score” value (Day 1) was 0, the “MADRS Reduced Sleep improvement” value (Day 1) was 5 and the “MADRS Reduced Sleep score” value (Day 1) was 0. For the same molecule, the “MADRS Reduced appetite improvement” value (Day 1) was 0, the “MADRS Reduced appetite score” value (Day 1) was 0 and the “MADRS Reported sadness improvement” value (Day 1) was 4. The “MADRS Reported sadness score” value (Day 1) was 0, the “MADRS Suicidal Thoughts improvement” value (Day 1) was 0 and the “MADRS Suicidal Thoughts score” value (Day 1) was 0. For the same molecule, the “BIMF item 1 (I am a good mother) score” value (Day 7) was 6, the “BIMF item 2 (I feel rested) score” value (Day 7) was 2 and the “BIMF item 3 (comfortable with the way I've chosen to feed my baby) score” value (Day 7) was 6. For the same molecule, the “BIMF item 4 (My baby and I understand each other) score” value (Day 7) was 5, the “BIMF item 5 (able to relax and enjoy time with my baby) score” value (Day 7) was 6 and the “BIMF item 6 (people I can trust to care for my baby when I need a break) score” value (Day 7) was 6. For the same molecule, the “BIMF item 8 (getting enough adult interaction) score” value (Day 7) was 6, the “BIMF item 9 (getting enough encouragement from other people) score” value (Day 7) was 6 and the “BIMF item 10 (trust my own feelings (instincts) in taking care of my baby) score” value (Day 7) was 6.
